Read-outs that look alike come from different tables or passages of the source.
Assays:
human TET2 [1] = target: T1, human TET2 (Homo sapiens, UniProt Q6N021); settings: for inhibition of TET2: additional experiments, data not shown, assay format not stated; for IC50 / inhibition of TET2 activity (in words): MALDI assay; for IC50: resynthesized/synthesized compounds, highest concentration 200 µM; for inhibition of TET2 activity (in words): synthesized compounds
TET1 = tested on: TET1; design: method as in PMID 35586434; settings: cited from earlier work
TET2 = tested on: TET2; design: method as in PMID 35586434; settings: cited from earlier work
human TET2 [2] = target: T1, human TET2; settings: FRET assay dose response; three independent experiments with technical duplicates
Experimental: Use of a DNA duplex terminally labelled with a FRET donor/acceptor dye pair (Cy3/Cy5) thereby enables measuring the amount of caC product generated from an mC duplex by TET (Fig. 1A). […] We identified an universal buffer system (50 mM potassium acetate, 20 mM Tris-acetate, 10 mM magnesium acetate, 100 μg ml^−1 BSA, pH 7.9) that was compatible with the activity of both TET2 and MspI, and thus was applicable to one pot reactions without intermediate purification steps. We incubated 0.5 μM of the DNA duplex with TET2 at different concentrations under aerobic conditions and in the presence of essential assay components, i.e. α-KG, ascorbate, dithiothreitol (DTT), and Fe(II) at 37 °C and pH 8 for 1 hour. We then added 20 U MspI enzyme to determine the caC level generated by TET2-mediated oxidation.
For screening, we premixed the annealed oligonucleotides with TET2 and all other essential components except Fe(II) in 1536-well plates, followed by the acoustic transfer of test compounds into each well at a final concentration of 50 μM. […] In order to distinguish the false-positive hits, we normalized the final Cy5 fluorescence of each well to its respective initial value immediately after MspI addition. […]
fluorescence signals were recorded on an Infinite® M1000 (Tecan). […]

| Structure (SMILES) | IC50 (human TET2 [1]) [µM] | other results |
| --- | --- | --- |
| O=C(O)c1ccnc(Br)c1 [2-bromoisonicotinic acid, reference compound] | – | inhibition of TET2 (human TET2 [1]): no inhibition |
| Nc1nc(=O)n(-c2cccc(-c3ccccc3)c2)cc1Cl [Bobcat339] | – | inhibition of TET1 (TET1): not be an inhibitor; inhibition of TET2 (TET2): not be an inhibitor |
| CC(=O)N(O)CCCCCNC(=O)CCC(=O)N(O)CCCCCNC(=O)CCC(=O)N(O)CCCCCN [DFOA, deferoxamine] | – | IC50 (human TET2 [2]): 46 µM |
| CC(C)OS(=O)(=O)c1ccc(F)c2ncc(I)cc12 [compound 5] | > 200 | – |
| CCCCCOS(=O)(=O)c1ccc(F)c2ncc(I)cc12 [compound 6] | > 200 | – |
| NS(=O)(=O)c1ccc(F)c2ncc(I)cc12 [compound 8] | 86.6 ± 5.6 | – |
| CNS(=O)(=O)c1ccc(F)c2ncc(I)cc12 [compound 9] | > 200 | inhibition of TET2 activity (in words) (human TET2 [1]): inactive |
| O=S(=O)(c1ccc(F)c2ncc(I)cc12)N1CCCC1 [compound 10] | > 200 | inhibition of TET2 activity (in words) (human TET2 [1]): inactive |
| O=S(=O)(Nc1ccccc1)c1ccc(F)c2ncc(I)cc12 [compound 11] | 23.9 ± 4.1 | – |
| O=S(=O)(NCc1ccccc1)c1ccc(F)c2ncc(I)cc12 [compound 13] | > 200 | – |
| O=S(=O)(NCCc1ccccc1)c1ccc(F)c2ncc(I)cc12 [compound 14] | > 200 | – |
| O=S(=O)(Nc1cccc(O)c1)c1ccc(F)c2ncc(I)cc12 [compound 16] | > 200 | – |
| Nc1ccccc1S(=O)(=O)O [o-anilinesulfonic acid, reference compound] | – | inhibition of TET2 (human TET2 [1]): no inhibition |
| Cc1ccc(S(=O)(=O)O)cc1 [p-toluenesulfonic acid, reference compound] | – | inhibition of TET2 (human TET2 [1]): no inhibition |

From article PMC9749932, “A high-throughput effector screen identifies a novel small molecule scaffold for inhibition of ten-eleven translocation dioxygenase 2” (RSC Medicinal Chemistry, 2022)
